{"source": "patent US10870654B2", "about": "“Pharmaceutically acceptable salts and polymorphic forms of hydrocodone benzoic acid enol ester and processes for making same” (KemPharm, Inc., priority 2013, dated 2020)", "key": {"[1]": {"protocol": "A number of experiments were performed to map out the relative stability of Forms I to V. Prior to the relative stability tests, the solids of Forms I, II and III were dried in the oven to remove surface water."}, "[2]": {"conditions": "37° C.; for water solubility: hydrochloride", "from_the_text": "Hydrocodone benzoic acid enol ester HCl exists in at least 6 distinct solid forms, designated herein as Forms I-V and amorphous. FIG. 1 is a scheme that depicts the general processes for converting hydrocodone benzoic acid enol ester HCl between its polymorphic forms I-V. Each polymorph has different characteristics, including solubility and stability."}, "[3]": {"conditions": "RH>90% at room temperature; hydrochloride"}}, "note": "Read-outs that look alike come from different tables or passages of the source.", "data": [{"smiles": "COc1ccc2c3c1O[C@H]1C(OC(=O)c4ccccc4)=CC[C@@H]4[C@@H](C2)N(C)CC[C@@]341.Cl", "note": "[Form II, hydrocodone benzoic acid enol ester hydrochloride]", "values": [{"measurement": "relative stability of forms in slurry", "setting": "[1]; in anhydrous organic solvents, especially at higher temperatures", "result": "the more stable one"}, {"measurement": "water solubility", "setting": "[2]", "result": "> 200", "unit": "mg/mL"}, {"measurement": "water solubility relative to Form I", "setting": "[2]; times higher than the solubility of Form I", "result": 9, "unit": "times"}, {"measurement": "stability under high humidity", "setting": "[3]", "result": "hygroscopic and unstable, and converted to Form IV"}]}, {"smiles": "COc1ccc2c3c1O[C@H]1C(OC(=O)c4ccccc4)=CC[C@@H]4[C@@H](C2)N(C)CC[C@@]341.Cl", "note": "[Form III, hydrocodone benzoic acid enol ester hydrochloride]", "values": [{"measurement": "stability under high humidity", "setting": "[3]", "result": "hygroscopic and unstable, and converted to Form V"}]}, {"smiles": "COc1ccc2c3c1O[C@H]1C(OC(=O)c4ccccc4)=CC[C@@H]4[C@@H](C2)N(C)CC[C@@]341.Cl", "note": "[I + II + III, hydrocodone benzoic acid enol ester hydrochloride]", "values": [{"measurement": "Form after 1 day slurry", "setting": "[1]; solvent Acetonitrile, 25° C.", "result": "I + traces of II"}, {"measurement": "Form after 1 day slurry", "setting": "[1]; solvent IPA, 25° C.", "result": "I + II"}, {"measurement": "Form after 1 day slurry", "setting": "[1]; solvent IPA, 50° C.", "result": "I + II"}]}, {"smiles": "COc1ccc2c3c1O[C@H]1C(OC(=O)c4ccccc4)=CC[C@@H]4[C@@H](C2)N(C)CC[C@@]341.Cl", "note": "[Form I, hydrocodone benzoic acid enol ester hydrochloride]", "values": [{"measurement": "relative stability of forms in slurry", "setting": "[1]; in water or organic solvents that contain water", "result": "always the most stable"}, {"measurement": "water solubility", "setting": "[2]", "result": "about 24 mg/mL"}, {"measurement": "stability under high humidity", "setting": "[3]", "result": "stable for at least two weeks"}]}]}
